Assay results: patent publication US10758534B2 (Vertex Pharmaceuticals Incorporated, priority 2014, dated 2020)

Molecular target: T1, F508del (Homo sapiens, UniProt P13569, DEL508-508)
T1 construct: expressed in transfected cells
Test: Protocol 2: FRET membrane potential optical assay (VIPR), identification of correction compounds
Type: cell-based
Settings: Table 3; compounds of Table 1 as modulators of CFTR activity; protocol not stated
Method in brief: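 NIH3T3 mouse fibroblasts stably expressing F508del were treated with test compound for 16 hrs at 37° C. in serum-free medium; 27° C. incubation served as positive control. F508del was activated with 10 μM forskolin plus 20 μM genistein in Cl^−-free medium, and Cl^− efflux-driven depolarization was read by DiSBAC2(3)/CC2-DMPE FRET.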

T1 sequence (P13569 with tags, fused parts or gaps DEL508-508): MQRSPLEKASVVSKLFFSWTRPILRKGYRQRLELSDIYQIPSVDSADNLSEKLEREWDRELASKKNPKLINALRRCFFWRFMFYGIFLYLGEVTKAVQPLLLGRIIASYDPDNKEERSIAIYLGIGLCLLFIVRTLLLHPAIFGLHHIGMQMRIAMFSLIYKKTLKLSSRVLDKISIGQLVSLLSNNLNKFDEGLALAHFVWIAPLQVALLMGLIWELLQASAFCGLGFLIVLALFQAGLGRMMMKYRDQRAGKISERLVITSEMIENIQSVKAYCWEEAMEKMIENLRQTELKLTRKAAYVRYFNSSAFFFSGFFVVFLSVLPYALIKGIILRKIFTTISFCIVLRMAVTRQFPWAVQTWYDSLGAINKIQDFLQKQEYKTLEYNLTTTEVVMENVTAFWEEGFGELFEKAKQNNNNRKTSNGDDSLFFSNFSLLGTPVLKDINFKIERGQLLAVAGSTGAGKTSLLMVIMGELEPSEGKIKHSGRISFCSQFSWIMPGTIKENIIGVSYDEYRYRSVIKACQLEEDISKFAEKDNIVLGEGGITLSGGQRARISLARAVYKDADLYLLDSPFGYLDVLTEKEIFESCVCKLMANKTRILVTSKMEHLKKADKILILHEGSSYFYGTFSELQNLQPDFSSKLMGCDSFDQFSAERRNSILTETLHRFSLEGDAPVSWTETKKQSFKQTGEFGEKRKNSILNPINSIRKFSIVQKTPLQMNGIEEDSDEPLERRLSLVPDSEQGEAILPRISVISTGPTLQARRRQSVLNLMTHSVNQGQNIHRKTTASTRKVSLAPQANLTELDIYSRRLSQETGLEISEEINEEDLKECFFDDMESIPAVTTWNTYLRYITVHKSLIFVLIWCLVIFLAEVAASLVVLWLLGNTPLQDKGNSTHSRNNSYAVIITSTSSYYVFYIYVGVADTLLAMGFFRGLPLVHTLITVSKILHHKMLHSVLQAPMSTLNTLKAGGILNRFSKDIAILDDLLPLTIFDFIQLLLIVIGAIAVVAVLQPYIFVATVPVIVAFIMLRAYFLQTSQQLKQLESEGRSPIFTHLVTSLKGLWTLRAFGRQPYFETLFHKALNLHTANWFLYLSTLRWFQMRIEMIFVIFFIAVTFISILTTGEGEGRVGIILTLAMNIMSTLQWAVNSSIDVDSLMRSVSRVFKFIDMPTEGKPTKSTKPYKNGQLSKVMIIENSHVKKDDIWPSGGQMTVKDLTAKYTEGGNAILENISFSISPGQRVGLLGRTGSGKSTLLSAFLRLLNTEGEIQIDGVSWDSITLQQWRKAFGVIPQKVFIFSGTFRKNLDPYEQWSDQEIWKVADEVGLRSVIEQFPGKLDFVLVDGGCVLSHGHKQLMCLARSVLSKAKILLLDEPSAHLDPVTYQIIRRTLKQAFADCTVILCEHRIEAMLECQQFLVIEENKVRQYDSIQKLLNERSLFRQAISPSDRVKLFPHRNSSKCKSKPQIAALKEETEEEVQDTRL

| SMILES | EC30 |
| --- | --- |
| COc1ccc(-c2ccc(C(=O)NS(=O)(=O)c3cccc(N)n3)c(Oc3c(C)cc(C)cc3C)n2)cn1 [Compound 531, N-[(6-amino-2-pyridyl)sulfonyl]-6-(6-methoxy-3-pyridyl)-2-(2,4,6-trimethylphenoxy)pyridine-3-carboxamide] | +++ (“+++” means <3 uM) |
| Cc1ccc(C(=O)NS(=O)(=O)c2cccc(N)n2)c(N2CCC[C@@H](c3ccccc3)C2)n1 [Compound 532, N-[(6-amino-2-pyridyl)sulfonyl]-6-methyl-2-[(3S)-3-phenyl-1-piperidyl]pyridine-3-carboxamide] | ++ (“++” means between 3 uM and 10 uM) |
| COc1ncc(-c2ccc(C(=O)NS(=O)(=O)c3cccc(N)n3)c(Oc3ccc(C)cc3C)n2)cc1C [Compound 533, N-[(6-amino-2-pyridyl)sulfonyl]-2-(2,4-dimethylphenoxy)-6-(6-methoxy-5-methyl-3-pyridyl)pyridine-3-carboxamide] | +++ (“+++” means <3 uM) |
| CC1CCN(c2nc(-c3ccc(OC(C)C)nc3)ccc2C(=O)NS(=O)(=O)c2ccn[nH]2)CC1 [Compound 534, 6-(6-isopropoxy-3-pyridyl)-2-(4-methyl-1-piperidyl)-N-(1H-pyrazol-5-ylsulfonyl)pyridine-3-carboxamide] | ++ (“++” means between 3 uM and 10 uM) |
| CCCOc1cc(-c2ccc(C(=O)NS(=O)(=O)c3cccc(N)n3)c(Oc3c(C)cc(C)cc3C)n2)ccc1Cl [Compound 535, N-[(6-amino-2-pyridyl)sulfonyl]-6-(4-chloro-3-propoxy-phenyl)-2-(2,4,6-trimethylphenoxy)pyridine-3-carboxamide] | +++ (“+++” means <3 uM) |
| CCOc1ccc(-c2ccc(C(=O)NS(=O)(=O)c3cccc(N)n3)c(N3CC(C)CC3(C)C)n2)c(C)c1 (centres unmarked) [Compound 536, N-[(6-amino-2-pyridyl)sulfonyl]-6-(4-ethoxy-2-methyl-phenyl)-2-(2,2,4-trimethylpyrrolidin-1-yl)pyridine-3-carboxamide] | +++ (“+++” means <3 uM) |
| CC(C)(C)c1ccc(C(=O)NS(=O)(=O)c2ccc(N)cc2)c(C2CCCCC2)n1 [Compound 537, N-(4-aminophenyl)sulfonyl-6-tert-butyl-2-cyclohexyl-pyridine-3-carboxamide] | +++ (“+++” means <3 uM) |
| Cc1cc(C)c(Oc2nc(C3CCC(C)(C)CC3)ccc2C(=O)NS(=O)(=O)c2cccc(N)n2)c(C)c1 [Compound 538, N-[(6-amino-2-pyridyl)sulfonyl]-6-(4,4-dimethylcyclohexyl)-2-(2,4,6-trimethylphenoxy)pyridine-3-carboxamide] | +++ (“+++” means <3 uM) |
| COc1ccnc2c1cc(C(=O)NS(=O)(=O)c1cccc(N)n1)n2Cc1c(C)cc(C)cc1C [Compound 539, N-[(6-amino-2-pyridyl)sulfonyl]-4-methoxy-1-[(2,4,6-trimethylphenyl)methyl]pyrrolo[2,3-b]pyridine-2-carboxamide] | + (“+” means greater than 10 uM) |
| C[C@H](c1ccccc1)n1nc(C(C)(C)C)cc1C(=O)NS(=O)(=O)c1cccc(N)c1 [Compound 540, N-(3-aminophenyl)sulfonyl-5-tert-butyl-2-[1(1R)-1-phenylethyl]pyrazole-3-carboxamide] | + (“+” means greater than 10 uM) |
| C[C@@H]1CC[C@H](C)N1c1nc(-c2cc(F)cc(OCC3CC3)c2)ccc1C(=O)NS(=O)(=O)c1ccc[nH]c1=O [Compound 541, 6-[3-(cyclopropylmethoxy)-5-fluoro-phenyl]-2-[(2S,5R)-2,5-dimethylpyrrolidin-1-yl]-N-[(2-oxo-1H-pyridin-3-yl)sulfonyl]pyridine-3-carboxamide] | +++ (“+++” means <3 uM) |
| CC(C)(C)c1ccc(C(=O)NS(=O)(=O)c2cccc(N)c2)c(-c2ccccc2)n1 [Compound 542, N-(3-aminophenyl)sulfonyl-6-tert-butyl-2-phenyl-pyridine-3-carboxamide] | +++ (“+++” means <3 uM) |
| Cc1cc(C)c(Oc2nc(-c3ccc(C(=O)NC(C)C)c(F)c3)ccc2C(=O)NS(=O)(=O)c2cccc(N)n2)c(C)c1 [Compound 543, N-[(6-amino-2-pyridyl)sulfonyl]-6-[3-fluoro-4-(isopropylcarbamoyl)phenyl]-2-(2,4,6-trimethylphenoxy)pyridine-3-carboxamide] | ++ (“++” means between 3 uM and 10 uM) |
| CC(C)COc1ccc(-c2ccc(C(=O)NS(=O)(=O)c3cccc(N)n3)c(N3[C@H](C)CC[C@@H]3C)n2)cn1 [Compound 544, N-[(6-amino-2-pyridyl)sulfonyl]-2-[(2S,5R)-2,5-dimethylpyrrolidin-1-yl]-6-(6-isobutoxy-3-pyridyl)pyridine-3-carboxamide] | +++ (“+++” means <3 uM) |
| Cc1cc(C)c(Oc2nc(-c3cc(F)ccc3F)ccc2C(=O)NS(=O)(=O)c2ccc[nH]c2=O)c(C)c1 [Compound 545, 6-(2,5-difluorophenyl)-N-[(2-oxo-1H-pyridin-3-yl)sulfonyl]-2-(2,4,6-trimethylphenoxy)pyridine-3-carboxamide] | ++ (“++” means between 3 uM and 10 uM) |
| Cc1cc(C)c(Oc2nc(-c3ccc(F)c(F)c3)ccc2C(=O)NS(=O)(=O)c2ccc[nH]c2=O)c(C)c1 [Compound 546, 6-(3,4-difluorophenyl)-N-[(2-oxo-1H-pyridin-3-yl)sulfonyl]-2-(2,4,6-trimethylphenoxy)pyridine-3-carboxamide] | ++ (“++” means between 3 uM and 10 uM) |
| CC(C)COc1cc(F)cc(-c2ccc(C(=O)NS(=O)(=O)c3cccc(N)n3)c(N3CC[C@H](C)C3(C)C)n2)c1 [Compound 547, N-[(6-amino-2-pyridyl)sulfonyl]-6-(3-fluoro-5-isobutoxy-phenyl)-2-[(3S)-2,2,3-trimethylpyrrolidin-1-yl]pyridine-3-carboxamide] | +++ (“+++” means <3 uM) |
| Cc1cc(C)c(Oc2nc(-c3ccc(C(F)(F)F)cc3)ccc2C(=O)NS(=O)(=O)c2cccc(N)n2)c(C)c1 [Compound 548, N-[(6-amino-2-pyridyl)sulfonyl]-6-[4-(trifluoromethyl)phenyl]-2-(2,4,6-trimethylphenoxy)pyridine-3-carboxamide] | +++ (“+++” means <3 uM) |
| CC(C)COc1cc(F)cc(-c2ccc(C(=O)NS(=O)(=O)c3cccc4[nH]ccc34)c(N3CC(C)CC3(C)C)n2)c1 (centres unmarked) [Compound 549, 6-(3-fluoro-5-isobutoxy-phenyl)-N-(1H-indol-4-ylsulfonyl)-2-(2,2,4-trimethylpyrrolidin-1-yl)pyridine-3-carboxamide] | +++ (“+++” means <3 uM) |
| COc1ccc(-c2nc(C(C)(C)C)ccc2C(=O)NS(=O)(=O)c2cccc(N)c2)cc1 [Compound 550, N-(3-aminophenyl)sulfonyl-6-tert-butyl-2-(4-methoxyphenyl)pyridine-3-carboxamide] | ++ (“++” means between 3 uM and 10 uM) |
| CCOc1cc(F)cc(-c2ccc(C(=O)NS(=O)(=O)c3cccc(N)n3)c(N3[C@H](C)CC[C@@H]3C)n2)c1 [Compound 551, N-[(6-amino-2-pyridyl)sulfonyl]-2-[(2R,5S)-2,5-dimethylpyrrolidin-1-yl]-6-(3-ethoxy-5-fluoro-phenyl)pyridine-3-carboxamide] | +++ (“+++” means <3 uM) |
| CCCOc1ccc(F)c(-c2ccc(C(=O)NS(=O)(=O)c3ccc[nH]c3=O)c(Oc3c(C)cc(C)cc3C)n2)c1 [Compound 552, 6-(2-fluoro-5-propoxy-phenyl)-N-[(2-oxo-1H-pyridin-3-yl)sulfonyl]-2-(2,4,6-trimethylphenoxy)pyridine-3-carboxamide] | ++ (“++” means between 3 uM and 10 uM) |
| CC(C)COc1cc(F)cc(-c2ccc(C(=O)NS(=O)(=O)c3ccn[nH]3)c(N3CCC(C(C)C)CC3)n2)c1 [Compound 553, 6-(3-fluoro-5-isobutoxy-phenyl)-2-(4-isopropyl-1-piperidyl)-N-(1H-pyrazol-5-ylsulfonyl)pyridine-3-carboxamide] | +++ (“+++” means <3 uM) |
| Cc1cc(C)c(CN2Cc3c(-c4ccccc4)cccc3C2C(=O)NS(=O)(=O)c2cccc(N)n2)c(C)c1 (centres unmarked) [Compound 554, N-[(6-amino-2-pyridyl)sulfonyl]-4-phenyl-2-[(2,4,6-trimethylphenyl)methyl]isoindoline-1-carboxamide] | +++ (“+++” means <3 uM) |
| CC(C)COc1cc(F)cc(-c2ccc(C(=O)NS(=O)(=O)c3cccc(N)n3)c(N3CC(C)CC3(C)C)n2)c1 (centres unmarked) [Compound 555, N-[(6-amino-2-pyridyl)sulfonyl]-6-(3-fluoro-5-isobutoxy-phenyl)-2-(2,2,4-trimethylpyrrolidin-1-yl)pyridine-3-carboxamide] | +++ (“+++” means <3 uM) |
| CC(C)COc1cc(F)cc(-c2ccc(C(=O)NS(=O)(=O)c3ccn[nH]3)c(N3CCC(CC#N)CC3)n2)c1 [Compound 556, 2-[4-(cyanomethyl)-1-piperidyl]-6-(3-fluoro-5-isobutoxy-phenyl)-N-(1H-pyrazol-5-ylsulfonyl)pyridine-3-carboxamide] | + (“+” means greater than 10 uM) |
| CC(C)Oc1ccc(-c2ccc(C(=O)NS(=O)(=O)c3cccc(N)n3)c(N3CC[C@H](C)C3(C)C)n2)cn1 [Compound 557, N-[(6-amino-2-pyridyl)sulfonyl]-6-(6-isopropoxy-3-pyridyl)-2-[(3S)-2,2,3-trimethylpyrrolidin-1-yl]pyridine-3-carboxamide] | +++ (“+++” means <3 uM) |
| CC(C)Oc1ccc(-c2ccc(C(=O)NS(=O)(=O)c3cccc(N)n3)c(N3CCCC(c4ccc(F)c(F)c4)C3)n2)cn1 (centres unmarked) [Compound 558, N-[(6-amino-2-pyridyl)sulfonyl]-2-[3-(3,4-difluorophenyl)-1-piperidyl]-6-(6-isopropoxy-3-pyridyl)pyridine-3-carboxamide] | +++ (“+++” means <3 uM) |
| Cc1ccc(Oc2nc(-c3cc(F)cc(OC(C)C)c3)ccc2C(=O)NS(=O)(=O)c2nccnc2N)c(C)c1 [Compound 559, N-(3-aminopyrazin-2-yl)sulfonyl-2-(2,4-dimethylphenoxy)-6-(3-fluoro-5-isopropoxy-phenyl)pyridine-3-carboxamide] | +++ (“+++” means <3 uM) |
